Columns and labels:
Format in all cases: cell-based, human
[1] = tested on: HCT 116 cells transduced with the PDE5A DD derived GFP constructs; assay: Response to Tadalafil, GFP expression by FACS in HCT116; settings: for MFI / Stabilization ratio with Tadalafil: 48 hours, HCT116
Protocol: (§1) PDE5AN (#3) was cloned as AcGFP fusion into pELNS vector carrying mCherry marker and packaged in lentiviral vectors. HCT116 cells were transduced with the construct and stable integrants were selected by cell sorting using mCherry marker. Cells were treated with vehicle (dimethyl sulfoxide, DMSO) or varying doses of Tadalafil (TDF) for 48 hrs with doses ranging from 0.01 μM to 100 μM. Following the treatment, cells were analyzed for GFP expression using FACS. Basal expression was calculated as the ratio of GFP signal in the absence of ligand for a given cell line to auto fluorescence of parental HCT-116 cells. Stabilization ratio was calculated as the ratio of the GFP signal observed in the presence of stabilizing ligand to the signal from the same cell line in the absence of ligand.
HCT 116 cells transduced with the PDE5A DD derived GFP constructs were also tested with increasing doses of Tadalafil. The HCT116 cells were incubated for 48 hours with Tadalafil starting at dose 0.01 μM to 100 μM. The GFP intensity of the Tadalafil treated samples was compared to the parental untransduced HCT116 and DMSO treated cells for each construct. The mean fluorescence intensity was calculated for each sample and used to calculate the stabilization ratios as well as the basal expression for each construct. The stabilization ratios are shown in Table 19 and Table 20 and the basal expression is show in Table 21.

[2] = tested on: HCT116 cells transduced with the constructs; assay: Response to Sildenafil, GFP expression by flow cytometry in HCT116; settings: for MFI / Stabilization ratio with Sildenafil: 48 hours, HCT116
Protocol: Similar experiments were performed in HCT116 cells using sildenafil. The above-mentioned DDs were cloned as AcGFP fusion into pELNS vector carrying mCherry marker and packaged in lentiviral vectors. HCT116 cells were transduced with the constructs and stable integrants were selected by cell sorting using mCherry marker. Cells were treated with sildenafil at the following μM concentrations: 0.01, 0.02, 0.05, 0.14, 0.41, 1.23, 3.7, 11.11, 33.33, and 100 for a duration of 48 hours. The fluorescence was analyzed by flow cytometry and the mean fluorescence intensity was calculated for all samples. […] The stabilization ratios are shown in Table 24 and Table 25 and the basal expression is show in Table 26.

[3] = tested on: HCT 116 cells transduced with the PDE5A DD derived GFP constructs; assay: Response to Vardenafil, GFP expression by FACS in HCT116; settings: for MFI / Stabilization ratio with Vardenafil: 48 hours, HCT116
Protocol: as §1, with “Mutations were created in PDE5A (535-860) catalytic domain using site directed mutagenesis and the mutants were” for “PDE5AN (#3) was”, “constructs” for “construct”, “10 μM Vardenafil (VDF)” for “varying doses of Tadalafil (TDF)”, “hours.” for “hrs with doses ranging from 0.01 μM to 100 μM.”
HCT 116 cells transduced with the PDE5A DD derived GFP constructs were also tested with increasing doses of Vardenafil. The HCT116 cells were incubated for 48 hours with Vardenafil starting at a dose of 0.002 μM to 30 μM. The GFP intensity of the Vardenafil treated samples was compared to the parental untransduced HCT116 and DMSO treated cells for each construct. The mean fluorescence intensity was calculated for each sample and used to calculate the stabilization ratios as well as the basal expression for each construct. The GFP expression was measured using flow cytometry and the mean fluorescence intensity (MFI) was calculated for each sample. The stabilization ratios are shown in Table 13 and Table 14 and the basal expression is show in Table 15.

Substance: PDE5AC (#13): AcGFP fused to C-terminal DD 535-860 of PDE5A (Q589R, Y676D, L738H), SEQ ID NO. 24
- MFI ([1]; DMSO (no Tadalafil)): 14416
- Basal expression ([1]; Table 21, MFI with DMSO / parental HCT116, Tadalafil experiment): 11.26
- Stabilization ratio with Tadalafil ([1]; Tadalafil 0.01 μM vs DMSO): 1.0
- MFI ([1]; Tadalafil 0.01 μM): 14388
- Stabilization ratio with Tadalafil ([1]; Tadalafil 0.02 μM vs DMSO): 1.0
- MFI ([1]; Tadalafil 0.02 μM): 14908
- Stabilization ratio with Tadalafil ([1]; Tadalafil 0.05 μM vs DMSO): 1.1
- MFI ([1]; Tadalafil 0.05 μM): 16488
- MFI ([1]; Tadalafil 0.14 μM): 21292
- Stabilization ratio with Tadalafil ([1]; Tadalafil 0.41 μM vs DMSO): 2.3
- MFI ([1]; Tadalafil 0.41 μM): 33396
- Stabilization ratio with Tadalafil ([1]; Tadalafil 1.23 μM vs DMSO): 4.1
- MFI ([1]; Tadalafil 1.23 μM): 58867
- Stabilization ratio with Tadalafil ([1]; Tadalafil 3.7 μM vs DMSO): 5.7
- MFI ([1]; Tadalafil 3.7 μM): 81755
- Stabilization ratio with Tadalafil ([1]; Tadalafil 11.11 μM vs DMSO): 6.4
- MFI ([1]; Tadalafil 11.11 μM): 92484
- Stabilization ratio with Tadalafil ([1]; Tadalafil 33.33 μM vs DMSO): 6.7
- MFI ([1]; Tadalafil 33.33 μM): 96959
- Stabilization ratio with Tadalafil ([1]; Tadalafil 100 μM vs DMSO): 7.3
- MFI ([1]; Tadalafil 100 μM): 105048
- MFI ([2]; DMSO (no Sildenafil)): 15122
- Stabilization ratio with Sildenafil ([2]; Sildenafil 0.01 μM vs DMSO): 1.0
- MFI ([2]; Sildenafil 0.01 μM): 14787
- Stabilization ratio with Sildenafil ([2]; Sildenafil 0.02 μM vs DMSO): 1.1
- MFI ([2]; Sildenafil 0.02 μM): 17318
- MFI ([2]; Sildenafil 0.05 μM): 26905
- Stabilization ratio with Sildenafil ([2]; Sildenafil 0.14 μM vs DMSO): 3.2
- MFI ([2]; Sildenafil 0.14 μM): 48611
- Stabilization ratio with Sildenafil ([2]; Sildenafil 0.41 μM vs DMSO): 4.6
- MFI ([2]; Sildenafil 0.41 μM): 69042
- Stabilization ratio with Sildenafil ([2]; Sildenafil 1.23 μM vs DMSO): 5.6
- MFI ([2]; Sildenafil 1.23 μM): 84772
- Stabilization ratio with Sildenafil ([2]; Sildenafil 3.70 μM vs DMSO): 5.5
- MFI ([2]; Sildenafil 3.70 μM): 82519
- Stabilization ratio with Sildenafil ([2]; Sildenafil 11.11 μM vs DMSO): 6.1
- MFI ([2]; Sildenafil 11.11 μM): 92732
- Stabilization ratio with Sildenafil ([2]; Sildenafil 33.33 μM vs DMSO): 6.2
- MFI ([2]; Sildenafil 33.33 μM): 93336
- Stabilization ratio with Sildenafil ([2]; Sildenafil 100.00 μM vs DMSO): 5.0
- MFI ([2]; Sildenafil 100.00 μM): 76090
- Basal expression ([2]; Table 26, MFI with DMSO / parental HCT116, Sildenafil experiment): 11.7
- MFI ([3]; DMSO (no Vardenafil)): 14659
- Basal (DMSO/Parental) ([3]; Table 10, GFP signal without ligand / auto fluorescence of parental HCT-116): 11.3
- Basal ([3]; Table 15, MFI with DMSO / parental HCT116, Vardenafil experiment): 7.50
- Stabilization ratio with Vardenafil ([3]; Vardenafil 0.002 μM vs DMSO): 1.3
- MFI ([3]; Vardenafil 0.002 μM): 18393
- MFI ([3]; Vardenafil 0.005 μM): 27661
- Stabilization ratio with Vardenafil ([3]; Vardenafil 0.014 μM vs DMSO): 4.1
- MFI ([3]; Vardenafil 0.014 μM): 59673
- Stabilization ratio with Vardenafil ([3]; Vardenafil 0.041 μM vs DMSO): 5.3
- MFI ([3]; Vardenafil 0.041 μM): 78117
- Stabilization ratio with Vardenafil ([3]; Vardenafil 0.123 μM vs DMSO): 6.0
- MFI ([3]; Vardenafil 0.123 μM): 88571
- Stabilization ratio with Vardenafil ([3]; Vardenafil 0.370 μM vs DMSO): 6.8
- MFI ([3]; Vardenafil 0.370 μM): 99160
- Stabilization ratio with Vardenafil ([3]; Vardenafil 1.111 μM vs DMSO): 6.8
- MFI ([3]; Vardenafil 1.111 μM): 99377
- Stabilization ratio with Vardenafil ([3]; Vardenafil 3.333 μM vs DMSO): 7.2
- MFI ([3]; Vardenafil 3.333 μM): 105500
- Stabilization ratio with Vardenafil ([3]; Vardenafil 10 μM vs DMSO): 6.7
- MFI ([3]; Vardenafil 10 μM): 97493
- Stabilization ratio with Vardenafil ([3]; Vardenafil 30 μM vs DMSO): 7.2
- MFI ([3]; Vardenafil 30 μM): 105335

From US11891634B2, “PDE5A destabilizing domains” (The Board of Trustees of the Leland Stanford Junior …, priority 2017, dated 2024)
